Target: T1, Aster-A (Homo sapiens, UniProt Q96CP6)
T1 construct: Aster-A(359-547); GST (PreScission-cleavable) (N, cleaved yes); made in house; host or cells: E. coli OverExpress C41
T1 sequence (Q96CP6 359-547): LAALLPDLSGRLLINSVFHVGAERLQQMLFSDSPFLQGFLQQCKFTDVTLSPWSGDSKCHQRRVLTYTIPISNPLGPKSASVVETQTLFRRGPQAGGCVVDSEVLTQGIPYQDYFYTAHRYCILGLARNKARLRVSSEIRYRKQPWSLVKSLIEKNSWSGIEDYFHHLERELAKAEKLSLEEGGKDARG
Test: Differential scanning fluorimetry (DSF), Aster-A
Type: binding
Settings: maximal thermal shift
Text: Protein expression constructs
Human ASTER domains of Aster-A(359-547), -B(364-552) and -C(318-504) were subcloned into a pGEX-6p-2rbs vector, thus introducing the cloning artifact ‘GPLGS’.3 The pGEX-6P-1-GST-OSBP(377- […]
a gift from James H. Hurley (University of California).4 The pHIS_2His6_Thrombin_STARD4(2-205;C75S) plasmid was a gift from Young Jun Im (Chonnam National University).5 STARD5A was a gift from Nicola Burgess-Brown (Addgene plasmid #42392; http://n2t.net/addgene:42392; […]
Protein expression and purification […]
vectors including an N-terminal PreScission-cleavable glutathione S-transferase (GST)-tag were expressed in Escherichia coli (E. coli) OverExpress C41 in Terrific Broth (TB) medium for 16 h at 18 °C after the induction with 0.1 mM isopropyl β-D-1-thiogalactopyranoside (IPTG). Cells were harvested at 3500 × g for 15 minutes and lysed by sonication in buffer containing 50 mM HEPES pH 7.5, 300 mM NaCl, 10 %v/v glycerol, 5 mM dithiothreitol (DTT), 0.1 %v/v Triton X-100 and protease inhibitor mix HP plus (Serva). The lysate was purified by affinity chromatography on a GSTrap FF column (Cytiva) using an ÄKTA Start (Cytiva) in buffer containing 50 mM HEPES pH 7.5, 300 mM NaCl, 10 %v/v glycerol, 5 mM DTT and 0.01 %v/v Triton X-100. The GST-tag was cleaved overnight on the column at 4 °C. […]

Compound | Aster-A (DSF) ΔTmmax
CC12CCC3CC1CCC21C(=Nc2ccc(N4CCOCC4)cc21)O3 (single isomer, unassigned; (-)) [(−)-19a] | 7.5 °C
CC(C)(C)OC(=O)N1CCN(c2ccc3c(c2)C24CCC5CC(CCC52C)OC4=N3)CC1 (centres unmarked) [Compound 19e] | 11.8 °C

Source: PMC11758220, “Identification of a Privileged Scaffold for Inhibition of Sterol Transport Proteins through the Synthesis and Ring Distortion of Diverse, Pseudo-Natural Products” (ACS Central Science, 2025)
